The structures appear in SMILES notation. Where a name gives a salt, the structure may show the parent alone. Read-outs that look alike come from different tables or passages of the source.

As usually defined, the AUC is concentration integrated over time. A low value points to low exposure. In general, MRT refers to the average time that molecules of a dose stay in the body. The Vd is a proportionality between amount in the body and measured concentration, not a real space. Low readings indicate little distribution into tissue, high ones wide distribution into tissue. Broadly, the Cmax is the peak of the concentration-time curve. In general, half-life refers to the time needed for the level to fall by half in the phase considered. A high value points to slow decline.

For data set [1] the following is noted: rats, intravenous administration of both drugs together.
For data set [2] the following is noted: rats, oral administration of both drugs together.
The conditions of data set [3]: 10 µM metformin.
Protocol: (§1) Hepatic and intestinal microsomes were prepared by the previously reported method as followings [17, 37, 38]: freshly excised livers were cut in pieces, washed extensively with ice-cold solution (KCl 0.15 M) to remove remaining blood and were homogenized with Tris-HCl buffer (pH 7.5) containing 0.15 M KCl + 50 mM Tris, 1 mM EDTA in a Potter-Elvehjem glass homogenizer for 30 s. The homogenate was centrifuged for 10 min at 10,000× g and 4 °C and then followed by ultracentrifugation of the remaining supernatant for 1 h at 100,000× g and 4 °C. Microsomal pellets were then re-suspended in the same buffer with a hand homogenizer and re-centrifuged for 1 h at 100,000× g and 4 °C. The supernatant was discarded, and the microsomal pellets were carefully overlaid with 0.15 mol KCl buffer and stored at −80 °C. Intestinal microsomes were prepared using freshly excised proximal and middle sections of the small intestine. […]
(§2) The unweighted kinetic data from the hepatic and intestinal microsomes were fitted using a single-site Michaelis−Menten equation; V = Vmax × [S]/(Km + [S]), in which [S] was the substrate concentration. The intrinsic clearance (CLint) was calculated by dividing the Vmax by the Km.
For data set [4] the following is noted: 10 µM metformin. This is another data set of the same source.
Protocol: as §1, §2
For data set [5] the following is noted: cited from earlier work.
A short description of data set [6]: in vivo. The conditions noted are these: rat, plasma, iv, 30 mg/kg.
The nature of data set [7]: in vivo. To be noted: rat, plasma, po, 30 mg/kg.
The nature of data set [8]: in vivo. To be noted: rat.
The nature of data set [9]: Oral pharmacokinetics of verapamil and norverapamil with and without metformin in rats. The conditions noted are these: for CL renal: plasma and urine, CLR; for half-life: Terminal half-life; for GI24 h: gastrointestinal tract at 24 h; for Ae0–24 h: urine up to 24 h.
Data set [10] in a line: Intravenous pharmacokinetics of verapamil and norverapamil with and without metformin in rats. The conditions noted are these: for CL renal: plasma and urine, CLR; for half-life: Terminal half-life; for GI24 h: gastrointestinal tract at 24 h; for Ae0–24 h: urine up to 24 h.
Where [11] appears, read: rat, plasma, po, 20 mg/kg, rats, oral verapamil 20 mg/kg, with metformin 30 mg/kg.
[12] abbreviates: rat, plasma, po, 20 mg/kg, rats, oral verapamil 20 mg/kg, without metformin.
Setting [13] is: rats, oral verapamil 20 mg/kg, with metformin 30 mg/kg.
Setting [14] is: rats, oral verapamil 20 mg/kg, without metformin.
The mark [15] stands for this setting: rat, plasma, iv, 20 mg/kg, rats, iv verapamil 20 mg/kg, with metformin 30 mg/kg.
[16] abbreviates: rat, plasma, iv, 20 mg/kg, rats, iv verapamil 20 mg/kg, without metformin.
The mark [17] stands for this setting: rats, iv verapamil 20 mg/kg, with metformin 30 mg/kg.
The mark [18] stands for this setting: rats, iv verapamil 20 mg/kg, without metformin.

Regarding `COc1ccc(CCN(C)CCCC(C#N)(c2ccc(OC)c(OC)c2)C(C)C)cc1OC` (stereo not drawn) [verapamil, Verapamil hydrochloride], the “effect of verapamil on the metformin concentration in the liver” value in [1] and in data set [2] was “did not cause any change” each time.

Turning to `CN(C)C(=N)N=C(N)N` [metformin, Metformin hydrochloride], the “effect of metformin on verapamil metabolism” value in [3] was “did not affect verapamil metabolism”. Further, the “effect of metformin on verapamil metabolism” value in data set [4] is reported as “did not affect verapamil metabolism”. Further, the “renal excretion of metformin (OCT2-mediated)” value in [5] is ~ 70 % of the metformin dose. In “in vivo [6]”, this compound had an AUC of 26500 ng·h/mL, a mean residence time MRT of 0.357 h and a Vd of 0.349 ± 0.128 L/kg. Besides, in the data set “in vivo [7]”, the AUC was 7870 ng·h/mL and the highest level (Cmax) was 2000 ± 328 ng/mL. In addition, in “in vivo [8]”, the concentration at 0.5 h was determined as 2910 ± 894 ng/mL.

In the case of `COc1ccc(CCNCCCC(C#N)(c2ccc(OC)c(OC)c2)C(C)C)cc1OC` (stereo not drawn) [norverapamil], the CL renal was 0.562 ± 0.445 mL/min/kg in data set [9] (rat, po, 20 mg/kg, rats, oral verapamil 20 mg/kg, with metformin 30 mg/kg); 0.336 ± 0.107 mL/min/kg in [9] (rat, po, 20 mg/kg, rats, oral verapamil 20 mg/kg, without metformin); 0.0626 ± 0.0535 mL/min/kg in data set [10] (rat, iv, 20 mg/kg, rats, iv verapamil 20 mg/kg, with metformin 30 mg/kg); 0.109 ± 0.102 mL/min/kg in data set [10] (rat, iv, 20 mg/kg, rats, iv verapamil 20 mg/kg, without metformin). Besides, the Tmax in data set [9] (rat, plasma, po, 20 mg/kg) is 0.75 h; in data set [9] (rats, oral verapamil 20 mg/kg, with metformin 30 mg/kg, median (range)) it was 45 (15–105) min; in data set [10] (rat, plasma, iv, 20 mg/kg), 1 h; in data set [10] (rats, iv verapamil 20 mg/kg, with metformin 30 mg/kg, median (range)) it was 60 (30−90) min. For the same compound, the area under the curve (AUC) in data set [9] (setting [11]) is 898 ng·h/mL; in data set [9] (setting [12]), 1140 ng·h/mL; in data set [10] (setting [15]) it was 3320 ng·h/mL; in [10] (setting [16]) it was 3130 ng·h/mL. Further, the maximum concentration (Cmax) was 273 ± 123 ng/mL in [9] (setting [11]), 267 ± 141 ng/mL in data set [9] (setting [12]), 1090 ± 308 ng/mL in data set [10] (setting [15]) and 1240 ± 386 ng/mL in data set [10] (setting [16]). The half-life in [9] (setting [11]) was 1.95 ± 0.742 h; in data set [9] (setting [12]), 2.8 ± 1.22 h; in data set [10] (setting [15]) it was 1.05 ± 0.253 h; in data set [10] (setting [16]), 0.847 ± 0.17 h. For the same compound, the GI24 h in [9] (setting [13]) is 0.0782 ± 0.0514 % of dose; in [9] (setting [14]), 0.0870 ± 0.0665 % of dose; in data set [10] (setting [17]) it was 0.126 ± 0.0927 % of dose; in [10] (setting [18]), 0.146 ± 0.0841 % of dose. Further, the “Ae0–24 h” value in data set [9] (setting [13]) is 0.113 ± 0.0522 % of dose; in data set [9] (setting [14]) it was 0.104 ± 0.0567 % of dose; in [10] (setting [17]), 0.0585 ± 0.0453 % of dose; in data set [10] (setting [18]), 0.0872 ± 0.0691 % of dose.

Source of the values: PMC7284374 (Pharmaceutics, 2020).
